# Source: US9815788B2, “Anti-angiogenic compounds” (University College Dublin National University of Ireland, …, priority 2012, dated 2017)
# Where a name gives a salt, the structure may show the parent alone.
# Key:
# Type in all cases: cell-based, human
# [1] = tested on: OE33P radio-sensitive oesophageal adenocarcinoma cells; assay: Cell number after 24 hours drug treatment (crystal violet absorbance), OE33P; details: 10 μM
# Method: (§1) OE33P radio-sensitive and OE33R radio-resistant oesophageal adenocarcinoma cells were used to test the effects of the compounds 11B HCl, […], 11B CC16 HCl, 11B 471 and 11B 268 on cell number. Cells were maintained in RPMI media supplemented with 10% foetal calf serum, penicillin (100 U/ml) and streptomycin (100 gig/ml). A total of 11.000 or 13,000 cells, in 100 μl media, were seeded per well in 24 well plates and left to incubate for 24 hours, with an additional 150 μl media added after 5 hours. The media was replaced with solutions containing 10 μM of 11B HCl, 11B CC11 HCl, 11B CC16 HCl, 11B 471, 11B 268 or fresh media as a control. Each drug had 6 replicates. After 24 hours of treatment, the cells were fixed with 1% glutaraldehyde for 15 minutes and then stained with crystal violet for 30 minutes. The plates were blotted and dried overnight. The cells were resuspended with 1% TritonX-100 and shaken for 15 minutes. The absorbance was read on a spectrophotometer at 590 nm.
# (§2) OE33P radiosensitive and OE33R radioresistant cells were used to test the effects of the compound 11B_Z_HCl on toxicity. Cells were maintained in RPMI media supplemented with 10% foetal calf serum, penicillin (100 U/ml) and streptomycin (100 μg/ml). A total of 11,000 cells, in 100 μl media, were seeded per well in 24 well plates and left to incubate for 24 hours, with an additional 150 μl media added after 5 hours. The media was replaced with solutions containing 10 μM of 11B_Z_HCl or fresh media as a control. Each treatment had 6 replicates. After 24 hours of treatment, the cells were fixed with 1% glutaraldehyde for 15 minutes and then stained with crystal violet for 30 minutes. The plates were blotted and dried overnight. The cells were resuspended with 1% TritonX-100 and shaken for 15 minutes. The absorbance was read on a spectrophotometer at 590 nm.
# [2] = tested on: OE33R radio-resistant oesophageal adenocarcinoma cells; assay: Cell number after 24 hours drug treatment (crystal violet absorbance), OE33R; details: 10 μM
# Method: as §1, §2
# [3] = tested on: OE33P radio-sensitive oesophageal adenocarcinoma cells; assay: Quantification of glycolysis (ECAR, Seahorse), OE33P; details: 10 μM, 24 hours
# Method: (§3) OE33P radio-sensitive and OE33R radio-resistant oesophageal adenocarcinoma cells were used to test the effects of compounds 11B HCl, 11B CC11 HCl, 11B CC16 HCl, 11B 471 and 11B 268 on glycolysis. Cells were maintained in RPMI media supplemented with 10% foetal calf serum, penicillin (100 U/ml) and streptomycin (100 μg/ml). A total of 11,000 or 13,000 cells, in 100 μl media, were seeded per well in 24 well plates and left to incubate for 24 hours, with an additional 150 μl media added after 5 hours. The media was replaced with solutions containing 10 μM of 11B HCl, 11B CC1 HCl, 11B CC16 HCl, 11B 471, 11B 268 or fresh media as a control. Each drug had 6 replicates. After 24 hours of treatment, media was replaced with modified DMEM supplemented with 0.5 mM glucose. Rates of glycolysis were determined using Seahorse Biosciences metabolism technology. The media was disposed and the cells washed with PBS. The cells were fixed with 1% glutaraldehyde for 15 minutes and then stained with crystal violet for 30 minutes. The plates were blotted and dried overnight. The cells were resuspended with 1% TritonX-100 and shaken for 15 minutes. The absorbance was read on a spectrophotometer at 590 nm. Rates of glycolysis were then normalised to cell number.
# as §3, with “radiosensitive” for “radio-sensitive and OE33R radio-resistant”, “the compound 11B_ZHCl” for “compounds 11B HCl, 11B CC11 HCl, 11B CC16 HCl, 11B 471 and 11B 268”, “11,000” for “11,000 or 13,000”, “11B_ZHCl” for “11B HCl, 11B CC1 HCl, 11B CC16 HCl, 11B 471, 11B 268”, “treatment” for “drug”, “number. No changes in ECAR were detected in OE33R treated cells.” for “number.”
# [4] = tested on: RAD51L3, MMS19, SMUG1, PARP1 and MLH1 in OE33P cells; assay: Gene expression of DNA repair proteins (qPCR), OE33P; details: 10 μM, 24 hours, reductions of RAD51L3, MMS19, SMUG1 and PARP1
# Method: O[…] radiosensitive and O[…] radioresistant oesophageal adenocarcinoma cells were used to test the effects of the above compounds on the gene expression of DNA repair proteins. Cells were maintained in RPMI media supplemented with 10% foetal calf serum, penicillin (100 U/ml) and streptomycin (100 μg/ml). Cells were seeded in 6 well plates and left to incubate for 24 hours. Cells were treated 10 μM of the above compounds or fresh media as a control. After 24 hours of treatment, RNA and cDNA was isolated and qPCR performed using primer probes to the following primer probes to RAD51L3, MMS19, SMUG1, PARP1 and MLH1. O[…] radiosensitive and O[…] radioresistant oesophageal adenocarcinoma cells were used to test the effects of compounds 11B HCl, 11B_CC11_HCl and 11B_Z_HCL on the gene expression of DNA repair proteins. Cells were maintained in RPMI media supplemented with 10% foetal calf serum, penicillin (100 U/ml) and streptomycin (100 μg/ml). Cells were seeded in 6 well plates and left to incubate for 24 hours. Cells were treated 10 μM of the above compounds or fresh media as a control. After 24 hours of treatment, RNA and cDNA was isolated and qPCR performed using primer probes to the following primer probes to RAD51L3, MMS19, SMUG1, PARP1 and MLH1.
Structure (SMILES),"cell number, measured by % absorbance [1]","cell number, measured by % absorbance [2]","extracellular acidification rate (ECAR), a measure of glycolysis [3]",expression of DNA repair genes [4],"cell number, measured by % absorbance ([1]; HCl salt)","cell number, measured by % absorbance ([2]; HCl salt)","extracellular acidification rate (ECAR), a measure of glycolysis ([3]; HCl salt)","extracellular acidification rate (ECAR), a measure of glycolysis ([3]; listed as 11B_ZHCl, HCl salt)"
Oc1ccccc1/C=C/c1ccc2ccccc2n1 [11B HCl],did not significantly reduce cell number,did not significantly reduce cell number,significantly reduce,Reduction,,,,
"C/C(=C\c1ccccc1O)c1ccc2ccccc2n1.Cl [Compound 11B_CC11_HCl, (E)-2-(2-Quinolin-2-yl-propenyl)-phenol HCl salt]",did not significantly reduce cell number,did not significantly reduce cell number,significantly reduce,Reduction,,,,
"Cl.Oc1ccccc1/C=C\c1ccc2ccccc2n1 [Compound 11B_Z_HCl, (Z)-2-(2-(Quinolin-2-yl)vinyl) phenol HCl salt]",,,,Reduction,did not significantly reduce cell number,did not significantly reduce cell number,significantly reduces,Significantly Reduces
